Laboratory results as given in patent US3951952A, “Broad spectrum antibiotics” (Pfizer Inc., priority 1973, dated 1976).
Values after ≈ are worked out from the molar mass of the structure shown. Read-outs that look alike come from different tables or passages of the source.

How the values were obtained:
Ps. aeruginosa 52A104 = test: In vitro MIC, Ps. aeruginosa 52A104; assay type: cell-based
Description: (§1) The in vitro activity of the herein described compounds renders them useful for topical application in the form of ointments, creams and the like, or for sterilization purposes, e.g., sick-room utensils.
(§2) Table I compares the in vitro profile of 6-[D-2-phenyl-2-(amidinopropionamido)acetamido]penicillanic acid (PAP) with ampicillin (AMP) and carbenicillin (CAR).

Ser. marcescens 63A001 = test: In vitro MIC, Ser. marcescens 63A001; assay type: cell-based
Description: as §1, §2

Kleb. pneumoniae 53A009 = test: In vitro MIC, Kleb. pneumoniae 53A009; assay type: cell-based
Description: as §1, §2

E. coli 51A002 = test: In vitro MIC, E. coli 51A002; assay type: cell-based; details: Escherichia coli, Table I, nutrient broth
Description: as §1, §2

P. vulgaris 57A059 = test: In vitro MIC, P. vulgaris 57A059; assay type: cell-based; details: Proteus vulgaris
Description: as §1, §2

E. coli 51A266 [1] = test: In vivo protection of mice against experimental E. coli 51A266 infection; details: doses 0.5, 4 and 24 hours; for % Protection (% survivors): Table II; for % Survivors: Table IV
Method: Table II presents the in vivo comparison data for the three compounds contained in Table I aganst several experimental infections in mice.
The values (% survivors) are obtained under standard conditions known to those skilled in the art. For the E. coli organism, the test compound is administered to the infected mice by a multiple dosing regimen in which the first dose is given 0.5 hour after inoculation and is repeated 4 and 24 hours later.
Table IV presents in vivo comparison data for the four compounds in Table III against E. coli infections in mice.
The values, reported as % survivors, are obtained under standard conditions familiar to those skilled in the art. The test compound is administered to the infected mice by a multiple dosing regimen in which the first dose is given 0.5 hour after inoculation and is repeated 4 and 24 hours later.

Ps. aeruginosa 52A173 = test: In vitro MIC, Ps. aeruginosa 52A173; assay type: cell-based; details: Pseudomonas aeruginosa, Table I, nutrient broth
Description: as §1, §2

A. aerogenes 55A002 = test: In vitro MIC, A. aerogenes 55A002; assay type: cell-based; details: Klebsiella aerogenes, Table I, nutrient broth
Description: as §1, §2

S. aureus = test: In vitro MIC, S. aureus; assay type: cell-based; details: Staphylococcus aureus, Table I, nutrient broth
Description: as §1, §2

Kleb. pneumoniae 53A015 = test: In vitro MIC, Kleb. pneumoniae 53A015; assay type: cell-based; details: Klebsiella pneumoniae, Table I, nutrient broth
Description: as §1, §2

Ps. aeruginosa 52A490 = test: In vitro MIC, Ps. aeruginosa 52A490; assay type: cell-based
Description: as §1, §2

E. coli 51A266 [2] = test: In vitro MIC, E. coli 51A266; assay type: cell-based
Description: as §1, §2

A. aerogenes 55A004 = test: In vitro MIC, A. aerogenes 55A004; assay type: cell-based; details: Klebsiella aerogenes, Table I, nutrient broth
Description: as §1, §2

gram-negative bacteria = details: in words, U.S. Pat. No. 3,142,673, cited from earlier work
P. mirabilis 57C015 = test: In vitro MIC, P. mirabilis 57C015; assay type: cell-based; details: Table III
Description: as §1, §2

S. aureus 01A005 = test: In vitro MIC, S. aureus 01A005; assay type: cell-based; details: Table III
Description: as §1, §2

A. aerogenes = test: In vitro MIC, A. aerogenes (strain not given); assay type: cell-based; details: Table III
Description: as §1, §2

[3] = Pseudomonas aeruginosa, Table I, nutrient broth, read-out: MIC
[4] = Serratia marcescens, Table I, nutrient broth, read-out: MIC
[5] = Klebsiella pneumoniae, Table I, nutrient broth, read-out: MIC
[6] = Table I, P. vulgaris 57A059, nutrient broth, read-out: MIC
[7] = Escherichia coli, Table I, E. coli 51A266, nutrient broth, read-out: MIC

SMILES	MIC (Ps. aeruginosa 52A104; [3])	MIC (Ser. marcescens 63A001; [4])	MIC (Kleb. pneumoniae 53A009; [5])	MIC (E. coli 51A002)	MIC (Ps. aeruginosa 52A173)	MIC (A. aerogenes 55A002)	MIC (Ps. aeruginosa 52A104; Table III)	MIC (P. mirabilis 57C015)	MIC (S. aureus 01A005)	MIC (Ser. marcescens 63A001; Table III)	MIC (Kleb. pneumoniae 53A009; Table III)	% Survivors (E. coli 51A266 [1]; PO, 25 mg./kg.)	% Survivors (E. coli 51A266 [1]; PO, 50 mg./kg.)	% Survivors (E. coli 51A266 [1]; PO, 200 mg./kg.)	% Survivors (E. coli 51A266 [1]; SC, 25 mg./kg.)	% Survivors (E. coli 51A266 [1]; SC, 50 mg./kg.)	% Survivors (E. coli 51A266 [1]; SC, 200 mg./kg.)	MIC (Ps. aeruginosa 52A490; Table III)	MIC (E. coli 51A266 [2]; Table III, E. coli 51A266)	MIC (A. aerogenes)	other results
CC1(C)S[C@@H]2[C@H](NC(=O)[C@H](N)c3ccccc3)C(=O)N2[C@H]1C(=O)O [AMP, ampicillin, reference compound]	200 µg/mL (≈ 572 µM)	200 µg/mL (≈ 572 µM)	100 µg/mL (≈ 286 µM)	200 µg/mL (≈ 572 µM)	38 µg/mL (≈ 109 µM)	100 µg/mL (≈ 286 µM)	–	–	–	–	–	–	–	–	–	–	–	–	–	–	MIC (P. vulgaris 57A059; [6]): 6 µg/mL (≈ 17.2 µM); % Protection (% survivors) (E. coli 51A266 [1]; PO, 50 mg./kg.): 80%; % Protection (% survivors) (E. coli 51A266 [1]; PO, 200 mg./kg.): 90%; % Protection (% survivors) (E. coli 51A266 [1]; SC, 50 mg./kg.): 80%; % Protection (% survivors) (E. coli 51A266 [1]; SC, 200 mg./kg.): 90%; MIC (S. aureus): 0.09 µg/mL (≈ 0.258 µM); MIC (Kleb. pneumoniae 53A015): 250 µg/mL (≈ 715 µM); MIC (Ps. aeruginosa 52A490; [3]): 0.78 µg/mL (≈ 2.23 µM); MIC (E. coli 51A266 [2]; Escherichia coli, 51A266): 3.12 µg/mL (≈ 8.93 µM); MIC (A. aerogenes 55A004): 5 µg/mL (≈ 14.3 µM)
CC1(C)S[C@@H]2[C@H](NC(=O)C(C(=O)O)c3ccccc3)C(=O)N2[C@H]1C(=O)O (stereo partly drawn) [CAR, carbenicillin]	50 µg/mL (≈ 132 µM)	25 µg/mL (≈ 66.1 µM)	200 µg/mL (≈ 529 µM)	200 µg/mL (≈ 529 µM)	75 µg/mL (≈ 198 µM)	25 µg/mL (≈ 66.1 µM)	–	–	–	–	–	–	–	–	–	–	–	–	–	–	MIC (P. vulgaris 57A059; 57A059): 12.5 µg/mL (≈ 33 µM); utility via oral administration (gram-negative bacteria; oral): limited utility via oral administration; efficacy against gram-negative bacteria (gram-negative bacteria; parenteral route): greater efficacy against gram-negative bacteria via the parenteral route of administration; MIC (S. aureus): 1.56 µg/mL (≈ 4.12 µM); MIC (Kleb. pneumoniae 53A015): > 200 µg/mL; MIC (Ps. aeruginosa 52A490; [3]): 0.6 µg/mL (≈ 1.59 µM); MIC (E. coli 51A266 [2]; [7]): 3.12 µg/mL (≈ 8.25 µM); MIC (A. aerogenes 55A004): 50 µg/mL (≈ 132 µM)
CC1(C)S[C@@H]2[C@H](NC(=O)[C@H](NC(=O)CCC(=N)N)c3ccccc3)C(=O)N2[C@H]1C(=O)O [PAP, 6-[D-2-phenyl-2-(amidinopropionamido)acetamido]penicillanic acid]	12.5 µg/mL (≈ 27.9 µM)	3.12 µg/mL (≈ 6.97 µM)	25 µg/mL (≈ 55.9 µM)	200 µg/mL (≈ 447 µM)	0.78 µg/mL (≈ 1.74 µM)	100 µg/mL (≈ 223 µM)	–	–	–	–	–	–	–	–	–	–	–	–	–	–	MIC (P. vulgaris 57A059; [6]): 1.56 µg/mL (≈ 3.49 µM); MIC (Kleb. pneumoniae 53A015): > 200 µg/mL; MIC (Ps. aeruginosa 52A490; [3]): 1.56 µg/mL (≈ 3.49 µM); MIC (E. coli 51A266 [2]; [7]): 1.56 µg/mL (≈ 3.49 µM)
CC1(C)S[C@@H]2[C@H](NC(=O)C(NC(=O)CNC(=N)c3ccc(Br)cc3)c3ccccc3)C(=O)N2[C@H]1C(=O)O (stereo partly drawn) [X = Br]	–	–	–	–	–	–	25 µg/mL (≈ 42.5 µM)	3.12 µg/mL (≈ 5.3 µM)	0.39 µg/mL (≈ 0.663 µM)	6.25 µg/mL (≈ 10.6 µM)	12.5 µg/mL (≈ 21.2 µM)	10%	0%	0%	50%	60%	90%	6.25 µg/mL (≈ 10.6 µM)	0.39 µg/mL (≈ 0.663 µM)	3.12 µg/mL (≈ 5.3 µM)	–
CC1(C)S[C@@H]2[C@H](NC(=O)C(NC(=O)CNC(=N)c3ccc(Cl)cc3)c3ccccc3)C(=O)N2[C@H]1C(=O)O (stereo partly drawn) [X = Cl]	–	–	–	–	–	–	25 µg/mL (≈ 46 µM)	3.12 µg/mL (≈ 5.73 µM)	0.39 µg/mL (≈ 0.717 µM)	6.25 µg/mL (≈ 11.5 µM)	12.5 µg/mL (≈ 23 µM)	0%	0%	0%	50%	60%	70%	12.5 µg/mL (≈ 23 µM)	0.78 µg/mL (≈ 1.43 µM)	3.12 µg/mL (≈ 5.73 µM)	–
CC1(C)S[C@@H]2[C@H](NC(=O)C(NC(=O)CNC(=N)c3ccc(F)cc3)c3ccccc3)C(=O)N2[C@H]1C(=O)O (stereo partly drawn) [X = F]	–	–	–	–	–	–	12.5 µg/mL (≈ 23.7 µM)	3.12 µg/mL (≈ 5.91 µM)	0.39 µg/mL (≈ 0.739 µM)	6.25 µg/mL (≈ 11.8 µM)	25 µg/mL (≈ 47.4 µM)	10%	0%	10%	50%	70%	90%	3.12 µg/mL (≈ 5.91 µM)	1.56 µg/mL (≈ 2.96 µM)	25 µg/mL (≈ 47.4 µM)	–
CC1(C)S[C@@H]2[C@H](NC(=O)C(NC(=O)CNC(=N)c3ccccc3)c3ccccc3)C(=O)N2[C@H]1C(=O)O (stereo partly drawn) [X = H]	–	–	–	–	–	–	25 µg/mL (≈ 49.1 µM)	12.5 µg/mL (≈ 24.5 µM)	0.78 µg/mL (≈ 1.53 µM)	12.5 µg/mL (≈ 24.5 µM)	100 µg/mL (≈ 196 µM)	0%	0%	10%	10%	70%	90%	12.5 µg/mL (≈ 24.5 µM)	12.5 µg/mL (≈ 24.5 µM)	25 µg/mL (≈ 49.1 µM)	–
